This is an account of results in patent US20250281462A1, “THERAPEUTICALLY EFFECTIVE ORAL ADMINISTRATION OF A 2 ARYLBENZIMIDAZOLE” (Tranquis Therapeutics, Inc., priority 2021, published 2025).

What is called half-life is the time in which the quantity being followed falls by half. By AUC is commonly meant the area under the concentration-time curve, a measure of exposure. As a reminder, the Cmax is the peak of the concentration-time curve. By Tmax is commonly meant the time at which the peak concentration occurs.

“And” between values parts separate entries of the source, which are not always exact repeats. Equal entries are not always repeated.

The data set is described as follows: clinical. Particulars: male, human, in vivo, 120 mg.

Turning to `CC(C)(C)c1ccc(-c2nc3cc(O)ccc3[nH]2)cc1` [TQS-621], the half-life was 10.2 h. The AUC (AUC(0-tau)) is 2270 ng·h/mL. The Cmax (Cmax) was 331 ng/mL and 1.24 µM. Besides, the Tmax (Tmax) is 1.5 h. Further, the Tmax (Tmax (median)) was 1.75 h. Further, the Tmax (po, Tmax (median)) came to 1.5 h.
